Results from ChEMBL document CHEMBL4033669, “Guanylthiourea derivatives as potential antimalarial agents: Synthesis, in vivo and molecular modelling studies” (Eur J Med Chem, 2017).
The source made the active and inactive calls. The rule behind the calls is not given here.

Legend:
Mus musculus = assay: Toxicity in Swiss mouse inoculated with parasite infected red blood cells assessed as mortality at 100 mg/kg/day, ip administered 4 hrs post infection on day 0, 1, 2 , 3 measured on day 4; format: organism-based; details: in vivo
Plasmodium berghei [1] = assay: (§1) Antimalarial activity against Plasmodium berghei in Swiss mouse inoculated with parasite infected red blood cells assessed as reduction in parasitemia at 100 mg/kg/day, ip administered 4 hrs post infection on day 0, 1, 2 , 3 measured on day 4 post infection by giemsa staining based microscopic method; format: functional, organism-based
Plasmodium berghei [2] = assay: Antimalarial activity against Plasmodium berghei in Swiss mouse inoculated with parasite infected red blood cells assessed as mean survival time at 100 mg/kg/day, ip administered 4 hrs post infection on day 0, 1, 2 , 3; format: functional
Plasmodium berghei [3] = assay: as §1, with “day 7” for “day 4”; format: functional, organism-based
[4] = Oral bioavailability in Sprague-Dawley rat at 10 mg/kg, administered via gavage; format: ADME, organism-based; details: in vivo
[5] = Apparent permeability across apical to basolateral side in human Caco2 cells at 50 uM after 90 mins by LC-MS/MS method; format: ADME, cell-based; details: Caco-2

SMILES	Activity (Mus musculus)	Activity (Plasmodium berghei [1])	also measured
N=C(N)/N=C(\N)SCc1ccccc1[N+](=O)[O-]	Toxic	inactive	–
N#Cc1ccc(CS/C(N)=N/C(=N)N)cc1	–	inactive	–
N=C(N)/N=C(\N)SCc1ccc(OCc2cccc(Br)c2)cc1	Toxic	inactive	–
N=C(N)/N=C(\N)SCc1ccc(F)cc1	Toxic	inactive	–
N=C(N)/N=C(\N)SCc1cccc(CS/C(N)=N/C(=N)N)c1	–	–	MST (Plasmodium berghei [2]): 20 days
N=C(N)/N=C(\N)SCCCOc1c(Cl)cc(Cl)cc1Cl	–	–	MST (Plasmodium berghei [2]): 24 days
N=C(N)/N=C(\N)SCc1ccccc1C(F)(F)F	Toxic	inactive	–
N=C(N)/N=C(\N)SCCOc1cccc(Br)c1	–	–	MST (Plasmodium berghei [2]): 25 days
N=C(N)/N=C(\N)SCCCOc1ccc(I)cc1	–	–	MST (Plasmodium berghei [2]): 26 days
N=C(N)/N=C(\N)SCCOc1nc2ccccc2s1	–	–	Activity (Plasmodium berghei [3]): Active
N=C(N)/N=C(\N)SCc1cccc(Cl)c1	Toxic	inactive	–
N=C(N=C(N)N)SCc1cccc(I)c1	Toxic	inactive	–
N=C(N)/N=C(\N)SCCCOc1ccc(Cl)c(Cl)c1	–	–	MST (Plasmodium berghei [2]): 24 days
N=C(N)NC(=N)SCc1cccc(C(F)(F)F)c1	Toxic	inactive	–
CC1(C)N=C(N)N=C(N)N1OCCCOc1cc(Cl)c(Cl)cc1Cl	–	–	bioavailability [4]: < 1%; Papp A→B at 1.5 h, 50 µM [5]: < 0.12 ×10⁻⁶ cm/s
Cc1ccc(CSC(=N)N=C(N)N)cc1	Toxic	inactive	–
N=C(N)NC(=N)SCc1cccc([N+](=O)[O-])c1	Toxic	inactive	–
N#Cc1ccc(CSC(=N)NC(=N)N)cc1	Toxic	–	–
